In US20060069132A1, “Azolecarboxamide herbicides” (priority 2004, published 2006):

Key:
Experiment in all cases: Test J Compounds 2 and 6 alone and in combination with other herbicides, foliage spray
[1] = system: large crabgrass (DIGSA); assay type: in vivo, Digitaria sanguinalis; set-up: key to DIGSA Obsd.: 0 = no effect, 100 = complete control; conditions: for DIGSA Obsd.: applied alone; for observed effect of mixture compared with additive effect expected from Colby's Equation: crabgrass, foliage spray, 15 days after treatment
From the text: (§1) Colby's Equation was used to calculate the expected additive herbicidal effect of the mixtures of Compound 6 with Harmony® Extra (i.e. a 2:1 mixture by weight of thifensulfuron-methyl and tribenuron-methyl). Colby's Equation (Colby, S. R. “Calculating Synergistic and Antagonistic Responses of Herbicide Combinations,” Weeds, 15(1), pp 20-22 (1967)) calculates the expected additive effect of herbicidal mixtures, and for two active ingredients is of the form: Pa+b=Pa+Pb−(PaPb/100) wherein • Pa+b is the percentage effect of the mixture expected from additive contribution of the individual components, • Pa is the observed percentage effect of the first active ingredient at the same use rate as in the mixture, and • Pb is the observed percentage effect of the second active ingredient at the same use rate as in the mixture.
(§2) Seeds of test plants consisting of barnyardgrass (ECHCG; Echinochloa crus-galli (L.) Beauv.), blackgrass (ALOMY; Alopecurus myosuroides Huds.), Surinam grass (BRADC; Urochloa decumbens (Staph) R. D. Webster, previously named Brachiaria decumbens Stapf), cocklebur (XANST, Xanthium strumarium L.), corn (ZEAMD, Zea mays L. cv. ‘Pioneer 33G26’), large crabgrass (DIGSA, Digitaria sanguinalis (L.) Scop.), giant foxtail (SETFA, Setaria faberi Herrm.), lambsquarters (CHEAL, Chenopodium album L.), morningglory (IPOCO, Ipomoea coccinea L.), pigweed (AMARE, Amaranthus retroflexus L.), velvetleaf (ABUTH, Abutilon theophrasti Medik.) wheat (TRZAS, Triticum aestivum L. cv. ‘Recital’) and wild oat (AVEFA, Avena fatua L.) were planted in Redi-Earth® planting medium (Scotts Company, 14111 Scottslawn Road, Marysville, Ohio 43041) comprising spaghnum peat moss and vermiculite. Seeds of small-seeded species were planted about 1 cm deep; larger seeds were planted about 2.5 cm deep. Plants were grown in a greenhouse using supplemental lighting to maintain a photoperiod of about 14 hours; daytime and nighttime temperatures were about 24-30° C. and 22-25° C., respectively. Balanced fertilizer was applied through the watering system. The plants were grown for 7 to 11 days so that at time of treatment the plants ranged in height from 2 to 18 cm (1- to 4-leaf stage). Treatments consisted of Compounds 2 and 6 (technical material), atrazine (90DF), terbacil (Sinbar® 80DF), hexazinone (Velpar® 75WG), diuron (Karmex® 80WP) and paraquat (Gramoxone® Extra, 37%) alone and in combination, suspended or dissolved in an aqueous solvent comprising a nonionic surfactant and applied as a foliage spray using a volume of 541 L/ha. Each treatment was triply replicated. […] Treated plants and controls were maintained in the greenhouse and watered as needed with care to not wet the foliage for the first 24 hours after treatment. The effects on the plants 15 days after treatment were visually compared to untreated controls. Plant response ratings, listed in Table J as the means of the thee replicates, are based on a scale of 0 to 100 where 0 is no effect and 100 is complete control. Also listed in Table J are the expected effects for the mixtures calculated using Colby's Equation.

[2] = system: wheat (TRZAS); assay type: in vivo, Triticum aestivum; set-up: key: 0 = no effect, 100 = complete control; conditions: applied alone
From the text: as §1, §2

[3] = system: blackgrass (ALOMY); assay type: in vivo, Alopecurus myosuroides; set-up: key: 0 = no effect, 100 = complete control; conditions: applied alone
Method in brief: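 Greenhouse plants grown 7–11 days (2–18 cm, 1- to 4-leaf) were foliage-sprayed at 541 L/ha with compounds alone or mixed, in aqueous nonionic-surfactant carrier, triplicate. Visual control rated 0–100 versus untreated plants 15 days after treatment; expected additive mixture effects by Colby's Equation.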

SMILES: CCNC(=O)c1ccc(F)c(NC(=O)c2cc(C(C)(C)C)nn2CC)c1 [Compound 2, 3-(1,1-dimethylethyl)-1-ethyl-N-[5-[(ethylamino)carbonyl]-2-fluorophenyl]-1H-pyrazole-5-carboxamide]
- DIGSA Obsd. ([1]; 62 g a.i./ha): 5
- DIGSA Obsd. ([1]; 125 g a.i./ha): 15
- observed effect of mixture compared with additive effect expected from Colby's Equation ([1]; mixture with diuron): greater than additive
- observed effect of mixture compared with additive effect expected from Colby's Equation ([1]; mixture with terbacil): greater than additive
- TRZAS Obsd. ([2]; 62 g a.i./ha): 8
- TRZAS Obsd. ([2]; 125 g a.i./ha): 10
- ALOMY Obsd. ([3]; 62 g a.i./ha): 15
- ALOMY Obsd. ([3]; 125 g a.i./ha): 13
